Consider 3 compounds from patent publication US11173193B2, “Immunobiological products” (priority 2016, dated 2021).

The subject of one data set is mice. Put plainly: Ear swelling test of mice, compared to Hostacortin H. The format is in vivo. On the procedure:
Ear erythema was determined by visual inspection and detection of presence (+) or absence (−) signs.
The thickness of the control and experimental ear in all animals was measured with a micrometer. Performance measurements were summed (Σ) separately the right and left ears in groups. The percentage of ear swelling and activity series is calculated using the following formulas: […]

For another data set, the system named is subclinical mastitis. The following applies: known methods of treating mastitis of cows; cited from earlier work.
The nature of data set [1]: Solubility of hydro-colloid and chitosan. Format: physicochemical. On the procedure:
Test solution: An adequate sample of Chitosan HCl, Chitosan-HAc, Chitosan, Chitosan-Valeric acid-Hydro Colloid and valeric acid, respectively was dissolved in the solvent above. This mixture was shacked and afterwards sonified in an ultrasonic bath for 5 min.
Sample: Chitosan suspended in water
Result: An acceptable solution of Chitosan in waterish or organic solvents like Methanol etc. is not possible. A suitable solubilization of Chitosan is only possible in stronger acids like HCl or HAc under production of Chitosan HCl or Chitosan HAc.

Where [2] appears, read: Dose 0.1 ml, right ear (allergen provocation site).

`CC(=O)OCC(=O)[C@@]1(O)CC[C@H]2[C@@H]3CCC4=CC(=O)C=C[C@]4(C)[C@H]3[C@@H](O)C[C@@]21C` [prednisolone-21-acetyl, prednisolone-21-acetate]: in the data set with mice (Dose 0.1 ml), the “Antiallergic activity in Ear swelling test after 2 hours post challenge” value is 14.2%, the “Antiallergic activity in Ear swelling test after 24 hours post challenge” value is recorded as 17.5% and the “Antiallergic activity in Ear swelling test after 48 hours post challenge” value is recorded as 10.7%. Besides, in the data set on mice (Dose 0.1 ml, left ear), the “Σ Ear thickness after 2 hours post challenge, Left” value was determined as 335 μm; the “Σ Ear thickness after 24 hours post challenge, Left” value stood at 330 μm; the “Σ Ear thickness after 48 hours post challenge, Left” value is listed as 326 μm. In addition, in the data set on mice (setting [2]), the “Σ Ear thickness after 2 hours post challenge, Right” value was determined as 345 μm; the “Σ Ear thickness after 24 hours post challenge, Right” value is 360 μm; the “Σ Ear thickness after 48 hours post challenge, Right” value is reported as 355 μm. Further, in the data set with mice (all stages of the experiment), the “inflammatory response in challenged mice” value is listed as “positive dynamics of reducing inflammatory response”.
For `CCN(CC)CCOC(=O)c1ccc(N)cc1` [procaine], the recovery time with subclinical mastitis was 3 to 5 days.
As to chitosan, in data set [1], the Solubility in water result is “water insoluble” and the “solution in waterish or organic solvents like Methanol” value was “not possible”.
